Consider 23 compounds from US7348425B2, “Inhibitors of HCV replication” (Bristol-Myers Squibb Company, priority 2004, dated 2008).

Like-named read-outs stand apart in the source and are kept apart here.

The target in assay [1] is T1, HCV NS5B RdRp genotype 1b (Hepatitis C virus genotype 1b, UniProt Q9WMX2).
T1 construct: The protein was expressed with an 18 amino acid C-terminal truncation to enhance the solubility; made in house; host or cells: E. coli BL21 (DE3), pET21a
Briefly: Standard HCV NS5B RdRp enzyme assay. Type of assay: biochemical. The note with it: standard method. Here is the method: HCVNS5B RdRp cloning, expression, and purification. The cDNA encoding the NS5B protein of HCV, genotype 1b, was cloned into the pET21a expression vector. The protein was expressed with an 18 amino acid C-terminal truncation to enhance the solubility. The E. coli competent cell line BL21 (DE3) was used for expression of the protein. Cultures were grown at 37° C. for ˜4 hours until the cultures reached an optical density of 2.0 at 600 nm. The cultures were cooled to 20° C. and induced with 1 mM IPTG. Fresh ampicillin was added to a final concentration of 50 μg/ml and the cells were grown overnight at 20° C.
Cell pellets (3 L) were lysed for purification to yield 15-24 mgs of purified NS5B. The lysis buffer consisted of 20 mM Tris-HCl, pH 7.4, 500 mM NaCl, 0.5% triton X-100, 1 mM DTT, 1 mM EDTA, 20% glycerol, 0.5 mg/ml lysozyme, 10 mM MgCl2, 15 ug/ml deoxyribonuclease I, and Complete TM protease inhibitor tablets (Roche). After addition of the lysis buffer, frozen cell pellets were resuspended using a tissue homogenizer. To reduce the viscosity of the sample, aliquots of the lysate were sonicated on ice using a microtip attached to a Branson sonicator. The sonicated lysate was centrifuged at 100,000×g for 1 hr at 4° C. and filtered through a 0.2 μm filter unit (Corning).
The protein was purified using three sequential chromatography steps: Heparin sepharose CL-6B, polyU sepharose 4B, and Hitrap SP sepharose (Pharmacia). The chromatography buffers were identical to the lysis buffer but contained no lysozyme, deoxyribonuclease I, MgCl2 or protease inhibitor and the NaCl concentration of the buffer was adjusted according to the requirements for charging the protein onto the column. Each column was eluted with a NaCl gradient which varied in length from 5-50 column volumes depending on the column type. After the final chromatography step, the resulting purity of the enzyme is >90% based on SDS-PAGE analysis. The enzyme was aliquoted and stored at −80° C.
Standard HCV NS5B RdRp enzyme assay. HCV RdRp genotype Ib assays were run in a final volume of 60 μl in 96 well plates (Costar 3912). The assay buffer is composed of 20 mM Hepes, pH 7.5, 2.5 mM KCl, 2.5 mM MgCl2, 1 mM DTT, 1.6 U RNAse inhibitor (Promega N2515), 0.1 mg/ml BSA (Promega R3961), and 2% glycerol. All compounds were serially diluted (3-fold) in DMSO and diluted further in water such that the final concentration of DMSO in the assay was 2%. HCV RdRp genotype 1b enzyme was used at a final concentration of 28 nM. A polyA template was used at 6 nM, and a biotinylated oligo-dT12 primer was used at 180 nM final concentration. Template was obtained commercially (Amersham 27-4110). Biotinylated primer was prepared by Sigma Genosys. ^3H-UTP was used at 0.6 μCi (0.29 μM total UTP). Reactions were initiated by the addition of enzyme, incubated at 30° C. for 60 min, and stopped by adding 25 μl of 50 mM EDTA containing SPA beads (4 μg/μl, Amersham RPNQ 0007). Plates were read on a Packard Top Count NXT after >1 hr incubation at room temperature.
The IC50 values for compounds were determined using seven different [I]. IC50 values were calculated from the inhibition using the formula y=A+((B−A)/(1+((C/x)^D))). FRET Assay Preparation. To perform the HCV FRET screening assay, 96-well cell culture plates were used. The FRET peptide (Anaspec, Inc.) (Taliani et al., Anal. Biochem. 240:60-67 (1996), hereby incorporated by reference in its entirety) contains a fluorescence donor, EDANS, near one end of the peptide and an acceptor, DABCYL, near the other end. The fluorescence of the peptide is quenched by […] resonance energy transfer (RET) between the donor and the acceptor, but as the NS3 protease cleaves the peptide the products are released from RET quenching and the fluorescence of the donor becomes apparent. […]

In a further assay the test system is HCV replicon. The assay is described as follows: HCV replicon luciferase assay. Type of assay: cell-based, Hepatitis C virus. The note with it: Hepatitis C virus. On the procedure: To prepare plates, HCV replicon cells, with or without a Renilla luciferase reporter gene, were trypsinized and placed into each well of a 96-well plate with titrated test compounds added in columns 3 through 12; columns 1 and 2 contained a control compound (HCV protease inhibitor), and the bottom row contained cells without compound. The plates were then placed in a CO2 incubator at 37 degrees C.
Assays. Subsequent to addition of the test compounds described above (FRET Assay Preparation), at various times the plate was removed and Alamar blue solution (Trek Diagnostics, #00-100) was added per well as a measure of cellular toxicity. After reading in a Cytoflour 4000 instrument (PE Biosystems), plates were rinsed with PBS and then used for FRET assay by the addition of 30 ul of the FRET peptide assay reagent described above (FRET Assay Preparation) per well. The plate was then placed into the Cytoflour 4000 instrument which had been set to 340 excite/490 emission, automatic mode for 20 cycles and the plate read in a kinetic mode. Typically, the signal to noise using an endpoint analysis after the reads was at least three-fold. Alternatively, after Alamar blue reading, plates were rinsed with PBS, 50 ul of DMEM (high glucose) without phenol red was added and plates were then used for luciferase assay using the Promega Dual-Glo Luciferase Assay System.
Compound analysis was determined by quantification of the relative HCV replicon inhibition and the relative cytotoxicity values. To calculate cytoxicity values, the average Alamar Blue fluorescence signals from the control wells were set as 100% non-toxic. The individual signals in each of the compound test wells were then divided by the average control signal and multiplied by 100% to determine […]. To calculate the HCV replicon inhibition values, an average background value was obtained from the two wells containing the highest amount of HCV protease inhibitor at the end of the assay period. These numbers were similar to those obtained from naïve Huh-7 cells.
The background numbers were then subtracted from the average signal obtained from the control wells and this number was used as 100% activity. The individual signals in each of the compound test wells were then divided by the averaged control values after background subtraction and multiplied by 100% to determine percent activity. EC50 values for a protease inhibitor titration were calculated as the concentration which caused a 50% reduction in FRET or luciferase activity. The two numbers generated for the compound plate, percent cytoxicity and percent activity were used to determine compounds of interest for further analysis.

[2] abbreviates: luciferase method, read-out: EC50.

T1 sequence (Q9WMX2 2420-2992): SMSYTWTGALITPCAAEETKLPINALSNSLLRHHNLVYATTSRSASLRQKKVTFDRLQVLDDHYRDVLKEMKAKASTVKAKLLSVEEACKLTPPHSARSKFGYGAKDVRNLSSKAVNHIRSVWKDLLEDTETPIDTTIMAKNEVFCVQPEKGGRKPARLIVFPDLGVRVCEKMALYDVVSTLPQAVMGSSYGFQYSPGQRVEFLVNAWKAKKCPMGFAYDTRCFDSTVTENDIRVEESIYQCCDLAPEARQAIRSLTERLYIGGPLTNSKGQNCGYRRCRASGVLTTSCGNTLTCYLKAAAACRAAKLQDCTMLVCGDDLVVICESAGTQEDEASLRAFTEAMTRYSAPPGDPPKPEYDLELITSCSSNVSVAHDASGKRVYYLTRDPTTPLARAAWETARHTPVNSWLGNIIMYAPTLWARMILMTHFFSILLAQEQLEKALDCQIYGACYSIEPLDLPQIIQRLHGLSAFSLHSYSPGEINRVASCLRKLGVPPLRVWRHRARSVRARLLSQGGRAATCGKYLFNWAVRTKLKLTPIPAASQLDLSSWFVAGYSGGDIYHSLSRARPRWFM

As usually defined, the IC50 is the concentration that inhibits the measured activity by half. By EC50 is commonly meant the midpoint of the concentration-response curve. `O=C(O)c1ccc2c(C3CCCCC3)c3n(c2c1)CC=Cc1cc(OCc2ccccc2)ccc1-3`: the IC50 in assay [1] is over 1000 nM. In addition, the EC50 with HCV replicon (setting [2]) is 100 to 1000 nM.
The corresponding values for `O=C(O)c1ccc2c(C3CCCCC3)c3n(c2c1)CCCc1occc1-3` are over 1000 nM and 1000 to 10000 nM.
For `CC(C)(C)OC(=O)N1/C=C\CCn2c(c(C3CCCCC3)c3ccc(C(=O)O)cc32)-c2ccccc21` the same measures were over 1000 nM and 1000 to 10000 nM.
For the compound `O=C(O)c1ccc2c(C3CCCCC3)c3n(c2c1)CCCCNc1ccccc1-3`, the IC50 in assay [1] was over 1000 nM. Also, the EC50 with HCV replicon (setting [2]) fell in the range of 100 to 1000 nM.
`O=C(O)c1ccc2c(C3CCCCC3)c3n(c2c1)CCCc1cc(O)ccc1-3` came in with a half-maximal inhibitory concentration (IC50) in assay [1] of 100 to 1000 nM. Also, in the assay on HCV replicon (setting [2]), the EC50 lay within 100 to 1000 nM.
For the compound `O=C(O)c1ccc2c(C3CCCCC3)c3n(c2c1)C(O)c1ccccc1-3` (stereo not drawn), the IC50 in assay [1] is over 1000 nM. The EC50 in the assay on HCV replicon (setting [2]) was over 10000 nM.
The corresponding values for `COC1c2ccccc2-c2c(C3CCCCC3)c3ccc(C(=O)O)cc3n21` (stereo not drawn) are over 1000 nM and over 10000 nM.
The corresponding values for `O=C(O)c1ccc2c(C3CCCCC3)c3c4ccccc4cc(C(=O)O)n3c2c1` are over 1000 nM and over 10000 nM.
`COC(=O)/C=C/c1ccc(NC(=O)C2(NC(=O)c3ccc4c(C5CCCCC5)c5n(c4c3)CCOc3ccccc3-5)CCCC2)cc1` had an IC50 in assay [1] of over 1000 nM.
`O=C(O)c1ccc2c(C3CCCCC3)c3n(c2c1)CC(C(=O)N1CCN(c2ccncc2)CC1)Cc1ccccc1-3` (stereo not drawn) showed an IC50 in assay [1] of 100 to 1000 nM. Besides, the EC50 with HCV replicon (setting [2]) lay within 100 to 1000 nM.
In assay [1], `COC(=O)c1ccc2c(C3CCCCC3)c3n(c2c1)CC(C(=O)N1CCN(c2ccncc2)CC1)Cc1ccccc1-3` (stereo not drawn) yielded an IC50 of over 1000 nM. For the same compound, the EC50 with HCV replicon (setting [2]) is 100 to 1000 nM.
`O=C(O)c1ccc2c(C3CCCCC3)c3n(c2c1)CC(C(=O)N1CCC(O)CC1)Cc1ccccc1-3` (stereo not drawn) gave an IC50 in assay [1] of 100 to 1000 nM. Moreover, in the assay on HCV replicon (setting [2]), the EC50 fell in the range of 100 to 1000 nM.
In assay [1], `O=C(O)c1ccc2c(C3CCCCC3)c3n(c2c1)CC(C(=O)N1CCOCC1)=Cc1ccccc1-3` came in with an IC50 of 100 to 1000 nM. In the assay on HCV replicon, this compound yielded an EC50 of 100 to 1000 nM.
Compound `COC(=O)c1ccc2c(C3CCCCC3)c3n(c2c1)CC(C(=O)N1CCOCC1)=Cc1ccccc1-3` had an IC50 in assay [1] of over 1000 nM. In addition, the EC50 in the assay with HCV replicon (setting [2]) lay within 1000 to 10000 nM.
For `O=C(O)c1ccc2c(C3CCCCC3)c3n(c2c1)CC(C(=O)N1CCN(c2ccncc2)CC1)=Cc1ccccc1-3` the same measures were 100 to 1000 nM and 100 to 1000 nM.
For `COC(=O)c1ccc2c(C3CCCCC3)c3n(c2c1)CC(C(=O)N1CCN(c2ccncc2)CC1)=Cc1ccccc1-3` the same measures were over 1000 nM and 1000 to 10000 nM.
The corresponding values for `O=C(O)/C=C/c1ccc(NC(=O)C2(NC(=O)c3ccc4c(C5CCCCC5)c5n(c4c3)CC(C(=O)N3CCOCC3)Cc3ccccc3-5)CCCC2)cc1` (stereo not drawn) are 100 to 1000 nM and under 100 nM.
In the case of `CN(C)S(=O)(=O)NC(=O)c1ccc2c(C3CCCCC3)c3n(c2c1)CC(C(=O)N1CCN(c2ccncc2)CC1)Cc1ccccc1-3` (stereo not drawn), the IC50 in assay [1] lay within 100 to 1000 nM. For the same compound, in the assay on HCV replicon (setting [2]), the EC50 is under 100 nM.
The corresponding values for `CN(C)S(=O)(=O)NC(=O)c1ccc2c(C3CCCCC3)c3n(c2c1)CC(C(=O)N1CCOCC1)Cc1ccccc1-3` (stereo not drawn) are 100 to 1000 nM and under 100 nM.
The corresponding values for `CN1CCN(C(=O)C2Cc3ccccc3-c3c(C4CCCCC4)c4ccc(C(=O)NS(=O)(=O)N(C)C)cc4n3C2)CC1` (stereo not drawn) are 100 to 1000 nM and 100 to 1000 nM.
The corresponding values for `CN(C)S(=O)(=O)NC(=O)c1ccc2c(C3CCCCC3)c3n(c2c1)CC(C(=O)N1CCC(N2CCCC2)CC1)Cc1ccccc1-3` (stereo not drawn) are 100 to 1000 nM and under 100 nM.
With `CN(C)S(=O)(=O)NC(=O)c1ccc2c(C3CCCCC3)c3n(c2c1)CC(C(=O)N1CCCC(O)C1)Cc1ccccc1-3` (stereo not drawn), the IC50 in assay [1] is 100 to 1000 nM. Besides, the EC50 in the assay with HCV replicon (setting [2]) was in the range of 100 to 1000 nM.
With `CN(C)S(=O)(=O)NC(=O)c1ccc2c(C3CCCCC3)c3n(c2c1)CC(C(=O)N1CCOCC1)=Cc1ccccc1-3`, in assay [1], the IC50 was 100 to 1000 nM. For the same compound, the EC50 in the assay with HCV replicon is under 100 nM.
